≈ marks a conversion by molar mass, not a printed value. Structures can show the parent of a compound that is named as a salt. Where two headings read alike, the source gives them in different places.
How the values were obtained:
[1] = tested on: carrageenin-induced foot edema; assay: inhibition of carrageenin-induced foot edema test (C.E.); type: in vivo; details: oral; for inhibition in vivo at 5 µmol/kg: dose 0.005 millimoles/kg; for inhibition in vivo at 5 µmol/kg / inhibition in vivo at 20 µmol/kg / inhibition in vivo at 80 µmol/kg / inhibition in vivo at 324 µmol/kg / inhibition in vivo at 4 µmol/kg: read-out: C.E. percent inhibition; for inhibition in vivo at 20 µmol/kg: dose 0.02 millimoles/kg; for inhibition in vivo at 80 µmol/kg: dose 0.08 millimoles/kg; for inhibition in vivo at 4 µmol/kg: dose 0.004 millimoles/kg
Procedure: (§1) Anti-inflammatory activity was determined using (1) the inhibition of carrageenin-induced foot edema test essentially described by Winter et al., Proc. Soc. Exp. Biol. and Med. 111, 554 (1962) as modified by Van Arman et al., J. Pharmacol. Exptl. Therap. 150, 328 (1965) and (2) a modification of the inhibition of adjuvant-induced arthritis test described by Pierson, J. Chronic Diseases 16, 863 (1963) and Glenn et al., Am. J. Vet. Res. 26, 1180 (1965).
(§2) The N-{2-,3- and 4-[R1 -(phenyl)-C(=X)]-phenyl-lower-alkyl}amines of formulas I, Ia and Ib of the invention have been tested in the carrageenin edema (CE) and adjuvant arthritis (AA) tests and found to have anti-inflammatory activity. For comparative purposes, data obtained in the carrageenin edema test on the reference compound (designated "Ref."), 4[(3-benzoylphenyl)methyl]morpholine, disclosed in French Patent 1,549,342, are also given. All data were obtained on oral administration.

[2] = tested on: adjuvant-induced arthritis; assay: inhibition of adjuvant-induced arthritis test (A.A.); type: in vivo; details: oral; for inhibition in vivo at 5 µmol/kg: dose 0.005 millimoles/kg; for inhibition in vivo at 5 µmol/kg / inhibition in vivo at 20 µmol/kg / inhibition in vivo at 80 µmol/kg / inhibition in vivo at 324 µmol/kg: read-out: A.A. percent inhibition; for inhibition in vivo at 20 µmol/kg: dose 0.02 millimoles/kg; for inhibition in vivo at 80 µmol/kg: dose 0.08 millimoles/kg; for inhibition in vivo at 324 µmol/kg: dose 0.324 millimoles/kg
Procedure: as §1, §2

[3] = tested on: acetylcholine-induced abdominal constriction; assay: acetylcholine-induced abdominal constriction test (Ach); type: in vivo, mice
Source text: J. Pharmacol. Chemotherap. 32, 295 (1968); a modification of the anti-bradykinin test, which is also a primary analgesic screening procedure, described by Berkowitz et al., J. Pharmacol. Exp. Therap. 177, 500-508 (1971), Blane et al., J. Pharm. Pharmacol. 19, 367-373 (1967), Botha et al., Eur. J. Pharmacol. 6, 312-321 (1969) and Deffenu et al., J. Pharm. Pharmacol. 18, 135 (1966); the phenyl-p-quinone-induced writhing test, also a primary analgesic screening test, designed to measure the ability of a test agent to prevent phenyl-p-quinone-induced writhing in mice, described by Pearl and Harris, J. Pharmacol. Exptl. Therap. 154, 319-323 (1966); the rat tail flick radiant thermal heat analgesic (agonist) test described by D'Amour and Smith, J. Pharmacol. Exptl. Therap. 72, 74 (1941) as modified by Bass and VanderBrook, J. Am. Pharm. Assoc. Sci. Ed. 41, 569 (1956); and the phenazocine antagonist test, which is designed to measure the ability of a test agent to antagonize the effect of phenazocine in the above-indicated rat tail flick response test, described by Harris and Pierson, J. Pharmacol. Exptl. Therap. 143, 141 (1964).
The ED50 is the calculated Effective Dose in 50% of the test animals. The abbreviations s.c., p.o. and i.p. stand for subcutaneous, peroral and intraperitoneal routes of administration, respectively. The compounds are identified by the Example numbers above where their preparations are described.

bradykinin = assay: anti-bradykinin test (BDK); type: in vivo; details: po
Source text: The test procedures used to determine the analgesic activities of the compounds have been described in detail in the prior art and are as follows: the acetylcholine-induced abdominal constriction test, which is a primary analgesic screening test designed to measure the ability of a test agent to suppress acetylcholine-induced abdominal constriction in mice, described by Collier et al., Brit. J. Pharmacol. Chemotherap. 32, 295 (1968); a modification of the anti-bradykinin test, which is also a primary analgesic screening procedure, described by Berkowitz et al., J. Pharmacol. Exp. Therap. 177, 500-508 (1971), Blane et al., J. Pharm. Pharmacol. 19, 367-373 (1967), Botha et al., Eur. J. Pharmacol. 6, 312-321 (1969) and Deffenu et al., J. Pharm. Pharmacol. 18, 135 (1966); the phenyl-p-quinone-induced writhing test, also a primary analgesic screening test, designed to measure the ability of a test agent to prevent phenyl-p-quinone-induced writhing in mice, described by Pearl and Harris, J. Pharmacol. Exptl. Therap. 154, 319-323 (1966); the rat tail flick radiant thermal heat analgesic (agonist) test described by D'Amour and Smith, J. Pharmacol. Exptl. Therap. 72, 74 (1941) as modified by Bass and VanderBrook, J. Am. Pharm. Assoc. Sci. Ed. 41, 569 (1956); and the phenazocine antagonist test, which is designed to measure the ability of a test agent to antagonize the effect of phenazocine in the above-indicated rat tail flick response test, described by Harris and Pierson, J. Pharmacol. Exptl. Therap. 143, 141 (1964).
Data so obtained for the species found active in one or more of these tests are given in TABLE C below, results being expressed either in terms of the ED50 or, in the acetylcholine-induced writhing test, as the percent inhibition of writhing in the test animals at a given dose level. The ED50 is the calculated Effective Dose in 50% of the test animals. The abbreviations s.c., p.o. and i.p. stand for subcutaneous, peroral and intraperitoneal routes of administration, respectively. The compounds are identified by the Example numbers above where their preparations are described.

[4] = tested on: herpes simplex virus types 1 and 2; assay: in vitro anti-viral activity against herpes simplex viruses types 1 and 2 (BSC cell line, monkey kidney); type: cell-based; details: read-out: MIC (Minimum Inhibitory Concentration)
Procedure: Monolayers of tissue cultures (BSC, cell line, monkey kidney) were infected with one hundred TCID50 (Tissue Culture Infectious Dose50) of infectious virus. After one hour of virus adsorption, fresh maintenance medium containing various concentrations of the test compounds was added to the monolayers. Cultures were then incubated at 36°-37° C., and after forty-eight and seventy-two hours, cultures were examined microscopically. […] In the presence of an active compound, cells grow normally similar to those in the tissue culture control. Simultaneously with the anti-viral evaluation, the toxicity of each compound was evaluated in separate cultures. Identical concentrations of the test compound were added to the tissue culture monolayers in the absence of virus. Those concentrations of the compound which show toxic effects on the cells were not considered in the anti-viral evaluation.

[5] = Mus musculus, po, read-out: Ach ED50

CC(CN1CCCCC1CC1CCCCC1)c1cccc(C(=O)c2ccccc2)c1 (centres unmarked) [12, 14]
inhibition in vivo at 5 µmol/kg [1]: 21%
inhibition in vivo at 20 µmol/kg [1]: 41%
inhibition in vivo at 80 µmol/kg [1]: 51%
inhibition in vivo at 324 µmol/kg ([1]; dose 0.324 millimoles/kg): 69%
inhibition in vivo at 5 µmol/kg [2]: 69%
inhibition in vivo at 20 µmol/kg [2]: 81%
inhibition in vivo at 80 µmol/kg [2]: 87%
ED50 ([3]; Mus musculus, po; read-out: Ach ED50): 55 mg/kg
Ach percent inhibition of writhing ([3]; dose 75, s.c.): 27%
ED50 (bradykinin): 63 mg/kg
MIC [4]: 6 µg/mL (≈ 14.9 µM)

CC(CN1CCCCC1CC1CCCCC1)c1cccc(C(O)c2ccccc2)c1 (stereo not drawn) [Example 1, 2-cyclohexylmethyl-1-{2-[3-(α-hydroxybenzyl)phenyl]propyl}piperidine]
inhibition in vivo at 5 µmol/kg [1]: 13%
inhibition in vivo at 20 µmol/kg [1]: 23%
inhibition in vivo at 80 µmol/kg [1]: 60%
inhibition in vivo at 324 µmol/kg ([1]; dose 0.324 millimoles/kg): 73%
inhibition in vivo at 5 µmol/kg [2]: 56%
inhibition in vivo at 20 µmol/kg [2]: 73%
inhibition in vivo at 80 µmol/kg [2]: 91%
ED50 [3, 5]: 71 mg/kg
Ach percent inhibition of writhing ([3]; dose 25, s.c.): 7%
Ach percent inhibition of writhing ([3]; dose 75, s.c.): 33%

CC1CCCC(C)N1CCc1cccc(C(O)c2ccccc2)c1 (stereo not drawn) [Example 1B, 2,6-Dimethyl-1-{2-[3-(α-hydroxybenzyl)phenyl]ethyl}piperidine]
inhibition in vivo at 4 µmol/kg [1]: 0%
inhibition in vivo at 20 µmol/kg [1]: 0%
inhibition in vivo at 80 µmol/kg [1]: 13%
toxicity (entry in C.E. column) ([1]; dose 0.324 millimoles/kg): Toxic
MIC [4]: 50 µg/mL (≈ 155 µM)

CC(CN1CCCCC1CC1CCCCC1)c1cccc(C(O)c2ccc(Cl)cc2)c1 (stereo not drawn) [Example 5, 2-cyclohexylmethyl-1-{2-[3-(α-hydroxy-4-chlorobenzyl)phenyl]propyl}piperidine]
inhibition in vivo at 4 µmol/kg [1]: 14%
inhibition in vivo at 20 µmol/kg [1]: 41%
inhibition in vivo at 5 µmol/kg [2]: 64%
inhibition in vivo at 20 µmol/kg [2]: 70%
inhibition in vivo at 80 µmol/kg [2]: 88%
MIC [4]: 6 µg/mL (≈ 13.6 µM)

CC(CN1CCCCC1C1CCCCC1)c1cccc(C(=O)c2ccccc2)c1 (centres unmarked) [Example 7E, 2-Cyclohexyl-1-[2-(3-benzoylphenyl)propyl]piperidine]
inhibition in vivo at 80 µmol/kg [1]: 33%
inhibition in vivo at 324 µmol/kg ([1]; dose 0.324 millimoles/kg): 58%
inhibition in vivo at 80 µmol/kg [2]: 92%
Ach percent inhibition of writhing ([3]; dose 25, s.c.): 46%
Ach percent inhibition of writhing ([3]; dose 75, s.c.): 93%

CC(CN1CCCCC1CCC1CCCCC1)c1cccc(C(=O)c2ccccc2)c1 (centres unmarked) [Example 7F, 2-(2-Cyclohexylethyl)-1-[2-(3-benzoylphenyl)propyl]piperidine]
inhibition in vivo at 80 µmol/kg [1]: 33%
inhibition in vivo at 324 µmol/kg ([1]; dose 0.324 millimoles/kg): 51%
inhibition in vivo at 80 µmol/kg [2]: 91%
toxicity ([2]; dose 0.16 millimoles/kg): Toxic
Ach percent inhibition of writhing ([3]; dose 25, s.c.): 7%
Ach percent inhibition of writhing ([3]; dose 75, s.c.): 33%

CC(CN1CCCCC1CC1CCCCC1)c1cccc(Cc2ccccc2)c1 (centres unmarked) [Example 10, 2-cyclohexylmethyl-1-[2-(3-benzylphenyl)propyl]piperidine]
inhibition in vivo at 5 µmol/kg [1]: 7%
inhibition in vivo at 20 µmol/kg [1]: 26%
inhibition in vivo at 80 µmol/kg [1]: 60%
inhibition in vivo at 5 µmol/kg [2]: 25%
inhibition in vivo at 20 µmol/kg [2]: 63%
inhibition in vivo at 80 µmol/kg [2]: 91%
MIC [4]: 6 µg/mL (≈ 15.4 µM)

CC(CN1CCNCC1)c1ccc(C(=O)c2ccccc2)cc1.Cl.Cl (centres unmarked) [Example 24C, 1-[2-(4-benzoylphenyl)propyl]piperazine dihydrochloride]
inhibition in vivo at 80 µmol/kg [1]: 16%
inhibition in vivo at 324 µmol/kg ([1]; dose 0.324 millimoles/kg): 41%
inhibition in vivo at 324 µmol/kg [2]: 63%
ED50 [3, 5]: 20 mg/kg

CC(CN1CCSCC1)c1ccc(C(=O)c2ccccc2)cc1 (centres unmarked) [Example 24D, 4-[2-(4-benzoylphenyl)propy]thiomorpholine hydrochloride]
inhibition in vivo at 80 µmol/kg [1]: 61%
inhibition in vivo at 324 µmol/kg ([1]; dose 0.324 millimoles/kg): 70%
inhibition in vivo at 80 µmol/kg [2]: 28%
ED50 [3, 5]: 50 mg/kg

CC(CN1CCC2(CC1)OCCS2)c1ccc(C(=O)c2ccccc2)cc1.Cl (centres unmarked) [Example 24F, 8-[2-(4-benzoylphenyl)propyl]-1-oxa-4-thia-8-azaspiro[4,5]decane hydrochloride]
ED50 [3, 5]: 18 mg/kg

CC(CN1CCNCC1)c1cccc(C(=O)c2ccccc2)c1.Cl.Cl (centres unmarked) [Example 24G, 1-[2-(3-benzoylphenyl)propyl]piperazine dihydrochloride]
inhibition in vivo at 80 µmol/kg [1]: 32%
inhibition in vivo at 324 µmol/kg ([1]; dose 0.324 millimoles/kg): 52%
ED50 [3, 5]: 30 mg/kg
ED50 ([3]; Mus musculus, sc; read-out: Ach ED50): 5.6 mg/kg

CC(C)(CN1CCOCC1)c1cccc(C(=O)c2ccccc2)c1.Cl [Example 24H, 4-[2,2-dimethyl-2-(3-benzoylphenyl)ethyl]morpholine hydrochloride]
inhibition in vivo at 80 µmol/kg [1]: 0%
inhibition in vivo at 324 µmol/kg ([1]; dose 0.324 millimoles/kg): 22%
inhibition in vivo at 324 µmol/kg [2]: 8%
Ach percent inhibition of writhing ([3]; dose 25, s.c.): 7%
Ach percent inhibition of writhing ([3]; dose 50, s.c.): 13%
Ach percent inhibition of writhing ([3]; dose 150, s.c.): 73%

CC(C)(CN1CCC2(CC1)OCCO2)c1cccc(C(=O)c2ccccc2)c1.Cl [Example 24J, 8-[2,2-dimethyl-2-(3-benzoylphenyl)ethyl]-1,4-dioxa-8-azaspiro[4,5]decane hydrochloride]
inhibition in vivo at 80 µmol/kg [1]: 6%
inhibition in vivo at 324 µmol/kg ([1]; dose 0.324 millimoles/kg): 8%
inhibition in vivo at 324 µmol/kg [2]: 36%
Ach percent inhibition of writhing ([3]; dose 25, s.c.): 33%
Ach percent inhibition of writhing ([3]; dose 50, p.o.): 27%
Ach percent inhibition of writhing ([3]; dose 150, p.o.): 53%

CC(C)(CN1CCOCC1)c1ccc(C(=O)c2ccccc2)cc1.Cl [Example 24K, 4-[2,2-dimethyl-2-(4-benzoylphenyl)ethyl]morpholine hydrochloride]
inhibition in vivo at 80 µmol/kg [1]: 19%
inhibition in vivo at 324 µmol/kg ([1]; dose 0.324 millimoles/kg): 60%
inhibition in vivo at 324 µmol/kg [2]: 7%
ED50 [3, 5]: 38 mg/kg

CC(C)(CN1CCC2(CC1)OCCO2)c1ccc(C(=O)c2ccccc2)cc1.Cl [Example 24L, 8-[2,2-dimethyl-2-(4-benzoylphenyl)ethyl]-1,4-dioxa-8-azaspiro[4,5]decane hydrochloride]
inhibition in vivo at 80 µmol/kg [1]: 46%
inhibition in vivo at 324 µmol/kg ([1]; dose 0.324 millimoles/kg): 70%
inhibition in vivo at 80 µmol/kg [2]: 24%
ED50 [3, 5]: 60 mg/kg

From patent publication US4417052A, “Phenyl-lower-alkyl piperidines and pyrrolidines” (Sterling Drug Inc., priority 1981, dated 1983)
